Source: patent US20230416228A1 (Forkhead Biotherapeutics, Inc., priority 2020, published 2023)

Each molecule was assayed against T1, human FOXO1 (constitutively active form Thr24Ala, Ser256Ala, Ser319Ala) (Homo sapiens, UniProt Q12778, S256A/S319A/T24A) (assay: FOXO1 inhibitor activity assay: cell-based transcriptional (luciferase) reporter assay in HEK293 cells). Conditions: HEK293 cells transfected with insulin response element firefly luciferase reporter, FOXO1 and Renilla luciferase; 10-point dose response 50 μM to 2.5 nM; 24 hours.
T1 construct: expressed in transfected cells; host or cells: HEK293 cells transfected with pcDNA3.1 plasmid
Method in brief: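 IC50 and maximal inhibition were fitted by 4-parameter logistic regression on normalized firefly/Renilla luciferase ratios. The 0% reference used RFP in place of FOXO1, and the 100% reference was DMSO-only with all plasmids.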

T1 sequence (Q12778 whole entry T24A/S256A/S319A): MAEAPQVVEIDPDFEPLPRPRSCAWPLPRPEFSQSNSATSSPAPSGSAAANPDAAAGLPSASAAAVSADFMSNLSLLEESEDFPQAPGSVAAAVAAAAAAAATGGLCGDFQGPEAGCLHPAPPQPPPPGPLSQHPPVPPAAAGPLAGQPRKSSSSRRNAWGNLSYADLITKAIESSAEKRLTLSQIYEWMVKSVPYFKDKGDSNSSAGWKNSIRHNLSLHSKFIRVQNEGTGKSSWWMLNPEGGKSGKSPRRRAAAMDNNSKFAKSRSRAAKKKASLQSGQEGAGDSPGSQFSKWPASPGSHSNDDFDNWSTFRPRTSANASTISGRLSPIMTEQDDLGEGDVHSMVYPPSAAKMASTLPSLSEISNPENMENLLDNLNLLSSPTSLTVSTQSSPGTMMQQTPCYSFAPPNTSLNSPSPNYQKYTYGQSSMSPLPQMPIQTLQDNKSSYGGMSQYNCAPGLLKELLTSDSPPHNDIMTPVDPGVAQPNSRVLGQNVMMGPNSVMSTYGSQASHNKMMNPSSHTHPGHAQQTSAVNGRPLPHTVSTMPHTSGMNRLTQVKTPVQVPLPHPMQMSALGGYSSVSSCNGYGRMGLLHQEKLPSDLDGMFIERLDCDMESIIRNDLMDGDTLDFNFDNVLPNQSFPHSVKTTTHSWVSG

Structure (SMILES)	IC50
COc1ccc2[nH]c(-c3cc(NC(=O)c4ccc(N5CCC(CO)CC5)nc4)n[nH]3)nc2c1 [Compound A-109, 6-[4-(hydroxymethyl)-1-piperidyl]-N-[5-(5-methoxy-1H-benzimidazol-2-yl)-1H-pyrazol-3-yl]pyridine-3-carboxamide]	< 100 nM
COc1cc(F)c2[nH]c(-c3cc(NC(=O)c4ccc(N5CCOC(CO)C5)nc4)n[nH]3)nc2c1 (centres unmarked) [Compound A-239, N-[5-(7-fluoro-5-methoxy-1H-benzimidazol-2-yl)-1H-pyrazol-3-yl]-6-[2-(hydroxymethyl)morpholin-4-yl]pyridine-3-carboxamide]	> 1000 nM
CCOC(=O)[C@H]1CCCN1c1ccc(C(=O)Nc2cc(-c3nc4cc(F)ccc4[nH]3)n(C)n2)cn1 [Compound A-146, ethyl (2R)-1-[5-[[5-(5-fluoro-1H-benzimidazol-2-yl)-1-methyl-pyrazol-3-yl]carbamoyl]-2-pyridyl]pyrrolidine-2-carboxylate]	> 1000 nM
COCCN1CCN(c2ccc(C(=O)Nc3cc(-c4nc5ccccc5[nH]4)[nH]n3)cn2)CC1 [Compound A-142, N-[5-(1H-benzimidazol-2-yl)-1H-pyrazol-3-yl]-6-[4-(2-methoxyethyl)-piperazin-1-yl]pyridine-3-carboxamide]	< 100 nM
Cn1nc(NC(=O)c2ccc(N3CCC(N4CCOCC4)CC3)nc2)cc1-c1nc2cc(F)ccc2[nH]1 [Compound A-168, N-[5-(5-fluoro-1H-benzimidazol-2-yl)-1-methyl-pyrazol-3-yl]-6-(4-morpholino-1-piperidyl)pyridine-3-carboxamide]	100 to 300 nM
